Source: the NIST ThermoML archive (doi:10.1016/j.fluid.2017.06.024)

Settings: Liquid; for speed of sound: Frequency=3 MHz, Pulse-echo method; for mass density: Vibrating tube method

CC(C)OC(C)C [diisopropyl ether]
Settings | mass density, 333.15 K [kg/m3] | mass density, 343.15 K [kg/m3] | mass density, 353.15 K [kg/m3] | mass density, 363.15 K [kg/m3] | mass density, 373.15 K [kg/m3] | mass density, 383.15 K [kg/m3] | mass density, 393.15 K [kg/m3] | speed of sound, 333.15 K [m/s] | speed of sound, 343.15 K [m/s] | speed of sound, 353.15 K [m/s]
10000 kPa | – | 686 | 676.2 | 666.1 | 655.9 | 645.3 | 634.8 | – | – | –
20000 kPa | – | 700 | 691.2 | 682.3 | 673.3 | 664 | 654.9 | – | 984.53 | 953.14
30000 kPa | – | 711.8 | 703.7 | 695.6 | 687.4 | 679 | 670.7 | – | – | –
40000 kPa | – | 722.2 | 714.6 | 707 | 699.4 | 691.8 | 684 | – | 1117.8 | 1090.7
50000 kPa | – | 731.4 | 724.2 | 717.1 | 709.9 | 702.8 | 695.4 | – | – | –
60000 kPa | – | 739.7 | 733 | 726.1 | 719.3 | 712.5 | 705.6 | – | 1226.4 | 1200.4
70000 kPa | – | 747.3 | 740.9 | 734.4 | 728 | 721.4 | 714.8 | – | – | –
80000 kPa | – | 754.4 | 748.2 | 742 | 735.7 | 729.5 | 722.9 | – | 1318.7 | 1294.6
90000 kPa | – | 761 | 755.1 | 749 | 743.1 | 737 | 730.8 | – | – | –
100000 kPa | 773.8 | 767.2 | 761.4 | 755.5 | 749.8 | 743.9 | 738 | 1423.5 | 1400.8 | 1378.4
110000 kPa | 779.4 | 773.2 | 767.3 | 761.7 | 756.2 | 750.4 | 744.6 | – | – | –
120000 kPa | 784.8 | 778.6 | 773 | 767.5 | 762.2 | 756.6 | 750.9 | – | – | –
130000 kPa | 789.9 | 784 | 778.4 | 773 | 767.8 | 762.4 | 756.8 | – | – | –
140000 kPa | 794.7 | 788.9 | 783.5 | 778.3 | 773.1 | 767.9 | 762.3 | – | – | –
